Assay results as given in the NIST ThermoML archive (doi:10.1021/je900520a).
± gives the expanded uncertainty stated by the source.

settings: Crystal; visual observation

Going from `C[C@]12C=CC(=O)N[C@@H]1CC[C@@H]1[C@@H]2CC[C@]2(C)[C@@H](C(=O)Nc3cc(C(F)(F)F)ccc3C(F)(F)F)CC[C@@H]12` [dutasteride] to `CC(C)(C)NC(=O)[C@H]1CC[C@H]2[C@@H]3CC[C@H]4NC(=O)C=C[C@]4(C)[C@H]3CC[C@]12C` [finasteride], the Normal melting temperature rises from 242 ± 1 °C to 252 ± 1 °C.

`CC(C)C(=O)Nc1ccc([N+](=O)[O-])c(C(F)(F)F)c1` [flutamide] gave a Normal melting temperature of 111 ± 1 °C.
